Where a name gives a salt, the structure may show the parent alone. Ends that are not written are not given here.
Legend:
[1] = system: busulfan-modeled mice; details: model group, busulfan 30 mg/kg single intraperitoneal injection; compared with the control group
Procedure: The Kunming mice are injected intraperitoneally with busulfan (30 mg/kg). An average weight of the mice is 27 grams (g). Each mouse is injected with 0.8 mg busulfan. A total of 40 mice are modeled.
After one week of modeling the mice, the average weight of the experimental mice is grams (g). […] The control group and the model group are injected with the equivalent amount of physiological saline.
After the mice are anesthetized and sacrificed, the left epididymal tail is immediately removed for semen analysis. The left testis is stored at −80° C., and the parameters such as protein and messenger ribonucleic acid (mRNA) expression are detected. The right testis and right epididymis are fixed with 4% paraformaldehyde for further histological analysis.
(2) Staining with hematoxylin: the soaked sections are taken out and dried, a hematoxylin staining solution is added to cover the tissue and stained for 3 minutes.
(3) Differentiation: a differentiation solution is dropped at the sections, after 5-6 seconds (s), when observing that the color has faded, the section can be rinsed with the ultrapure water.
(4) Bluing: hematoxylin bluing solution is dropped at the section, after 5-6 seconds, when observing the color blue, the sections can be rinsed with the ultrapure water. […]

[2] = system: men with oligospermia with hypogonadism; details: cited from earlier work
[3] = after administration (oral); cited from earlier work
[4] = system: patients with oligospermia; details: GnRH supplementation; cited from earlier work

CS(=O)(=O)OCCCCOS(C)(=O)=O [busulfan]
structure of seminiferous tubules (HE staining of testes) [1]: severely damages

CCN(CC)CCOc1ccc(C(=C(Cl)c2ccccc2)c2ccccc2)cc1 [clomiphene citrate]
bone mineral density of patients ([2]; 12-month treatment): significantly reduce | usefulness in men with oligospermia with hypogonadism ([2]; in vivo): proven to be useful

Nc1nc2ccc(OC(F)(F)F)cc2s1 [riluzole, 2-amino-6-trifluomethoxy-benzothiazole]
time to peak of blood concentration [3]: 60 to 90 min

GnRH: gonadotropin-releasing hormone supplementation (QHWSYGLRPG; ends and bridges not checked; UniProt P01148 24-33, looked up)
patients who succeed in spermatogenesis [4]: 77%

Source: patent US12691103B2 (Jinan University, priority 2022, dated 2026)
